From PMC6369428, “Efflux Inhibitor Bicalutamide Increases Oral Bioavailability of the Poorly Soluble Efflux Substrate Docetaxel in Co-Amorphous Anti-Cancer Combination Therapy” (Molecules, 2019)
Values after ≈ are worked out from the molar mass of the structure shown. Read-outs that look alike come from different tables or passages of the source.

Key:
[1] = In vivo pharmacokinetics study in fasted rats; set-up: species or system Sprague Dawley rats; details: for DTX AUC / BIC AUC: mean ± SEM
Procedure: Healthy female and male Sprague Dawley rats of 7 weeks age weighing 140–240 g (Charles River, Denmark), were used for the experiments. The rats were housed with free access to water and food in groups of two rats per cage under controlled environmental conditions (constant temperature and humidity with a 12 h day-night cycle). All animal experimental work was carried out under the protocol approved by the Danish Animal Experiments Inspectorate (approval no. 2014-15-0201-00031), and all the procedures used were refined to provide maximal comfort and minimal stress to the animals.
All animals were fasted for approximately 12 h prior to administration of the drug formulations and food was provided to rats approximately 6 h after drug administration, although free access to water was allowed during fasting. The nine groups studied, each consisting of 6–8 rats, were assigned randomly and included two groups receiving an intravenous bolus injection of either DTX or BIC corresponding to 1 mg/rat (4–7 mg/kg) dissolved in saline: DMSO (50:50 v/v) with 1% Tween 80, administered in the tail vein. The remaining seven groups were orally administered with DTX or BIC or a combination of these at a fixed dose of 30 mg/kg for DTX and 16 mg/kg for BIC. For DTX, four groups of animals were studied, one group administered with crystalline DTX (crystalline), one group administered with a physical mixture of crystalline DTX and BIC (physical mix), one group administered with amorphous DTX (amorphous) and one group administered with the co-amorphous mixture of DTX and BIC (co-amorphous). For BIC three groups of animals were studied, one group administered with crystalline BIC (crystalline), one groups administered with a physical mixture of crystalline DTX and BIC (physical mix) and one group administered with the co-amorphous mixture of DTX and BIC (co-amorphous). Drug powders were suspended in 0.5 mL PBS and the suspension was immediately administered to the rats using a flexible cannula. Blood samples (150–200 µL) were collected in EDTA coated tubes from puncturing of the tail vein at 0.5, 1, 2, 4, 6 and 24 h after drug administration. The rats were euthanized by cervical dislocation after collection of the final blood sample. Plasma samples were obtained by centrifugation of blood samples at 3600 g (10 min, 4 °C) and transferred into microtubes. The plasma samples were stored at −80 °C until used for further analysis.
The bioanalysis of DTX and BIC in rat plasma was carried out using HPLC coupled with mass spectrometric (MS) detection. Prior to analysis liquid-liquid extraction was performed on the plasma samples (50 μL) by adding 100 μL of ethyl acetate and subsequently vortexing the vial for protein precipitation. The vials were centrifuged and 100 μL supernatant was carefully transferred to HPLC vials with inserts and evaporated using compressed air. The dried content of the vial was reconstituted using 150 μL ACN:H2O (1:1 v/v) and measured by LC-MS/MS.
LC-MS/MS analysis was performed using a 1290 Agilent Infinity Series system (Agilent Technologies, Palo Alto, CA, USA) coupled to an AB Sciex 4500 QTrap MS (Applied Biosystems, Foster City, CA, USA). A HPLC-MS method was developed for each compound. In both cases chromatographic separation was performed using a Phenomenex Kinetex (Torrance, CA, USA) C18 (50 × 2.1 mm, 2.6 μm) column with a Phenomenex C18 SecurityGuard™ Ultra (2.1 mm, 2 µm) guard column and the mobile phases consisted of (A) MilliQ water with 0.1% formic acid and (B) ACN with 0.1% formic acid. The column and autosampler tray were set at 40 °C and 6 °C, respectively, and the flow rate was set at 0.25 mL/min. The injection volume was set at 1 μL and 5 μL for BIC and DTX, respectively. For BIC, the elution gradient started at 20% B at time 0 and increased to […] at time 3.0 min. Hereafter B was held at 99% until 4.3 min before re-equilibrating the column until 5.5 min. The retention time for BIC was 3.12 min. […]

[2] = Saturation solubility studies in FaSSIF; type: physicochemical; details: crystalline drugs, FaSSIF pH 6.5, after 72 h with excess drug powder
Procedure: DTX and BIC saturation solubility studies were conducted in FaSSIF. The biorelevant FaSSIF medium was prepared by adding 218 mg bovine bile extract, 58 mg phosphatidylcholine, 232 mg Tris maleate salt and 395 mg sodium chloride to 100 mL of ultra-purified water and stirring overnight at 37 °C. The medium pH was adjusted to 6.5 with 1 M NaOH before use. Approximately 100 mg of the drugs were mixed with 1.5 mL of the media in plastic tubes, and the suspensions were rotated at 20 rpm for 72 h. The solution was separated from undissolved drug by centrifugation, and aliquots from the saturated solution were filtered through 0.45 µm polyvinylidene difluoride (PVDF) filters. The solubility may potentially have been influenced by exposure to temperature since both, centrifugation and filtration, were conducted at room temperature.
The concentrations of DTX and BIC were determined using a reversed-phase high-performance liquid chromatography (HPLC) system (Dionex Corporation, CA, USA) equipped with an ASI-100 autosampler, Dionex Ultimate 300 UV-Visible detector and pump. Chromatographic separation was achieved using a XB-C18 Phenomenex Kinetex column of 2.6 μm (2.1 × 50 mm) (Torrance, CA, USA) at 30 °C. […] Peaks were analysed at 270 nm for BIC and 230 nm for DTX. […]

[3] = set-up: method as in Valicherla et al. [19]; details: oral drug delivery strategy for DTX (self-emulsifying drug delivery system), rats, ref Valicherla et al. [19]; cited from earlier work
[4] = set-up: method as in Zhang et al. [20]; details: oral drug delivery strategy for DTX (cyclodextrin-based polymeric micelle), mice, ref Zhang et al. [20]; cited from earlier work
[5] = Dissolution studies in FaSSIF biorelevant medium; type: physicochemical; details: 37 °C
Procedure: The concentrations of DTX and BIC were determined using a reversed-phase high-performance liquid chromatography (HPLC) system (Dionex Corporation, CA, USA) equipped with an ASI-100 autosampler, Dionex Ultimate 300 UV-Visible detector and pump. Chromatographic separation was achieved using a XB-C18 Phenomenex Kinetex column of 2.6 μm (2.1 × 50 mm) (Torrance, CA, USA) at 30 °C. The mobile-phase consisted of a mixture of A) 95% water 5% acetonitrile (ACN) and 0.1% trifluoroacetic acid (TFA) and B) 95% ACN 5% water 0.1% TFA, and was used at a flow rate of 0.5 mL/min in isocratic mode (60% A 40% B). Peaks were analysed at 270 nm for BIC and 230 nm for DTX. Linear calibration curves in the range of 0.25–5 μg/mL for both BIC and DTX were obtained in acetonitrile. Elution times were 4.8 min for BIC and 6.4 min for DTX.
For the dissolution studies, powder formulations were initially suspended in PBS in order to avoid powder agglomerates. Immediately after suspension, 100 µL aliquots were added to each well of a 12-well plate containing 2.9 mL dissolution medium/well. The concentrations of the drugs in the dissolution medium were 3 times higher than their respective saturation solubilities. […] The obtained samples were centrifuged at 10,000 g for 10 min and the supernatant was then analysed by HPLC (see above). […]

[6] = Physical stability on storage, analysed by XRPD; type: physicochemical; details: 1.5 years at 4 °C under dry conditions
Procedure: XRPD was performed using an X’Pert PANalytical PRO X-ray diffractometer (PANalytical, Almelo, The Netherlands) using Cu Kα radiation (λ = 1.54 Å), and an acceleration voltage and current of 45 kV and 40 mA, respectively. The powder samples were scanned in reflectance mode from 5° to 35° 2ϴ with a scan speed of 0.067° 2ϴ and a step size of 0.026° 2ϴ. Data were collected and analyzed using the software X’Pert Data Collector (PANalytical, Almelo, The Netherlands).
The co-amorphous binary DTX-BIC mixture as well as the pure individual amorphous drugs were stored in a desiccator under dry conditions (silica gel) at 4 °C and analysed by XRPD after 1.5 years of storage.

[7] = DTX in plasma, oral suspension, 30 mg/kg DTX, 30 mg/kg
[8] = oral suspension, 30 mg/kg DTX, Fa = AUCoral/AUCIV × 100, mean ± SEM, 30 mg/kg
[9] = intravenous bolus, 1 mg/rat (4–7 mg/kg)

CC(=O)O[C@@]12CO[C@@H]1C[C@H](O)[C@@]1(C)C(=O)[C@H](O)C3=C(C)[C@@H](OC(=O)[C@H](O)[C@@H](NC(=O)OC(C)(C)C)c4ccccc4)C[C@@](O)([C@@H](OC(=O)c4ccccc4)[C@H]21)C3(C)C [Crystalline DTX, Docetaxel]
DTX Tmax [1, 7]: 4 h | DTX Tmax ([1]; DTX in plasma, oral suspension, 30 mg/kg DTX, listed as crystalline DTX, 30 mg/kg): around 1 h | DTX AUC [1, 7]: 185 ± 29 ng/mL × 24h | DTX Fa (absolute oral bioavailability) [1, 8]: 0.20 ± 0.03% | Cmax ([1]; both sexes, Sprague Dawley, rat, plasma, po, 30 mg/kg, DTX in plasma, oral suspension, 30 mg/kg DTX, read-out: DTX Cmax): 15 ng/mL

CC(=O)O[C@@]12CO[C@@H]1C[C@H](O)[C@@]1(C)C(=O)[C@H](O)C3=C(C)[C@@H](OC(=O)[C@H](O)[C@@H](NC(=O)OC(C)(C)C)c4ccccc4)C[C@@](O)([C@@H](OC(=O)c4ccccc4)[C@H]21)C3(C)C [DTX, Docetaxel]
solubility at 72 h [2]: 7.5 ± 1.2 µg/mL (≈ 9.28 µM) | Tmax ([1]; both sexes, Sprague Dawley, plasma, intravenous bolus, 1 mg/rat (4–7 mg/kg), read-out: DTX Tmax): 0.5 h | Cmax ([1]; both sexes, Sprague Dawley, rat, plasma, iv, 1 mg, intravenous bolus, 1 mg/rat (4–7 mg/kg), read-out: DTX Cmax): 7210 ng/mL | DTX AUC [1, 9]: 93,196 ± 12,626 ng/mL × 24h | Cmax [3]: 125 ng/mL | relative bioavailability increase [3]: 3.2 fold | Cmax [4]: 292 ng/mL | relative bioavailability increase [4]: 4.6 fold

CC(O)(CS(=O)(=O)c1ccc(F)cc1)C(=O)Nc1ccc(C#N)c(C(F)(F)F)c1 (centres unmarked) [Amorphous BIC, bicalutamide]
time after which the saturation solubility of BIC is reached ([5]; BIC in FaSSIF): 120 min | physical stability (solid state by XRPD) after storage [6]: recrystallized

CC(O)(CS(=O)(=O)c1ccc(F)cc1)C(=O)Nc1ccc(C#N)c(C(F)(F)F)c1 (centres unmarked) [BIC, bicalutamide]
solubility at 72 h [2]: 3.05 ± 0.9 µg/mL (≈ 7.09 µM) | Cmax ([1]; both sexes, Sprague Dawley, rat, plasma, iv, 1 mg, intravenous bolus, 1 mg/rat (4–7 mg/kg), read-out: BIC Cmax): 11300 ng/mL | Tmax ([1]; both sexes, Sprague Dawley, rat, plasma, iv, 1 mg, intravenous bolus, 1 mg/rat (4–7 mg/kg), read-out: BIC Tmax): 0.5 h | BIC AUC [1, 9]: 317 µg/mL × 24h

CC(=O)O[C@@]12CO[C@@H]1C[C@H](O)[C@@]1(C)C(=O)[C@H](O)C3=C(C)[C@@H](OC(=O)[C@H](O)[C@@H](NC(=O)OC(C)(C)C)c4ccccc4)C[C@@](O)([C@@H](OC(=O)c4ccccc4)[C@H]21)C3(C)C [Amorphous DTX, Docetaxel]
DTX supersaturation behaviour ([5]; DTX in FaSSIF, up to 240 min): does not supersaturate | physical stability (solid state by XRPD) after storage [6]: remained amorphous | DTX Cmax [1, 7]: 19 ng/mL | DTX Tmax [1, 7]: 6 h | DTX AUC [1, 7]: 518 ± 113 ng/mL × 24h | DTX Fa (absolute oral bioavailability) [1, 8]: 0.56 ± 0.12%

CC(O)(CS(=O)(=O)c1ccc(F)cc1)C(=O)Nc1ccc(C#N)c(C(F)(F)F)c1 (centres unmarked) [Crystalline BIC, bicalutamide]
BIC AUC ([1]; BIC in plasma, oral suspension, 16 mg/kg BIC): 43.06 ± 4.79 µg/mL × 24h | Cmax ([1]; both sexes, Sprague Dawley, rat, plasma, po, 16 mg/kg, BIC in plasma, oral suspension, 16 mg/kg BIC, read-out: BIC Cmax): 1660 ng/mL | Tmax ([1]; both sexes, Sprague Dawley, rat, plasma, po, 16 mg/kg, BIC in plasma, oral suspension, 16 mg/kg BIC, read-out: BIC Tmax): 6 h | bioavailability ([1]; both sexes, Sprague Dawley, rat, plasma, po, 16 mg/kg, BIC, oral suspension, 16 mg/kg BIC, Fa = AUCoral/AUCIV × 100, mean ± SEM, read-out: BIC Fa (absolute oral bioavailability)): 14 ± 1%
